Data published in patent publication US20260365622A1, “CRYSTALLINE CARBAZOLE DERIVATIVE AND METHODS OF MAKING THEREOF” (Raziel Therapeutics Ltd., priority 2022, published 2026).
Each block holds one compound with its values, some of them ahead of it.

How the values were obtained:
Type in all cases: physicochemical
[1] = Karl Fischer (KF) coulometric titration; settings: in duplicate
Protocol: Water content of crystalline Compound A was determined using KF Coulometric Titration by either direct addition or liquid extraction.
10-20 mg of crystalline Compound A was weighed into a vial. The solid was then manually introduced into the titration cell of a Mettler Toledo C30 Compact Titrator. The vial was back-weighed after the addition of the solid and the weight of the added solid entered on the instrument. Titration was initiated once the sample had fully dissolved in the cell. The water content was calculated automatically by the instrument as a percentage and the data printed. The analysis was carried out in duplicate.
10-20 mg of crystalline Compound A was weighed into a vial, 10-15 mL of the Coulomat was extracted from the cell of a Mettler Toledo C30 Compact Titrator and added to the vial containing the sample. The solid was dissolved by shaking manually or using ultrasonic bath. When complete dissolution was achieved, the solution was injected back into the cell titrator and the weight of the sample added was entered on the instrument. The water content was calculated automatically by the instrument as a percentage and the data printed. The analysis was carried out in duplicate.

[2] = Conversion of Compound A Form 4 on standing in humid conditions; settings: standing at 25 °C and 40 °C and at >30% RH
[3] = Variable humidity X-ray powder diffraction (VH-XRPD); settings: desorption phase, 90% RH to 20% RH; starting from Form 2
Protocol: A known mass of 5-(3,6-dibromo-9H-carbazol-9-yl)-N,N,N-trimethylpentan-1-aminium chloride Form 2 (Compound A Form 2) was analyzed by variable humidity X-ray powder diffraction (VH-XRPD) on a Philips X'Pert Pro Multipurpose diffractometer quipped with a humidity chamber. The samples were scanned between 4 and 35.99° 2θ using Cu K radiation (α1 λ=1.54060 Å; α2=1.54443 Å; β=1.39225 Å; α1:α2 ratio=0.5) running in Bragg-Brentano geometry (step size 0.008° 2θ) using 40 kV/40 mA generator settings. Measurements were performed between 7-90% RH and XRPD scans were collected at each humidity step. The VH-XRPD analysis was conducted an absorption phase between ambient and 90% RH, a desorption phase between 90% RH and 7% RH, and a second absorption phase between 20% and 40% RH.

[4] = Accelerated stability tests of crystalline Compound A Form 1 (Table 5); settings: 7 days; for Purity after storage: HPLC
Protocol: (§1) XRPD analysis was carried out on a PANalytical X'pert Pro with PIXcel detector (128 channels), scanning the samples between 3 and 35° […]. The material was gently ground (where required) to release any agglomerates and loaded onto a multi-well plate with Kapton or Mylar polymer film to support the sample. The multi-well plate was then placed into the diffractometer and analyzed using Cu K radiation (α1 λ=1.54060 Å; α2 λ=1.54443 Å; β λ=1.39225 Å; α1:α2 ratio=0.5) running in transmission mode (step size 0.0130° 2θ, step time 18.87 s) using 40 kV/40 mA generator settings. Data were visualized and images generated using the HighScore Plus 4.7 desktop application (PANalytical, 2017).
Crystalline Compound A (Form 1) was not changed after storage at room temperature for 7 days, storage at 40 °C/75% RH for 7 days, or storage at 80 °C for 7 days. Purity was determined by HPLC analysis.

[5] = Long-term stability tests of crystalline Compound A Form 1 (Table 6); settings: for Purity after storage: HPLC
Protocol: as §1
Crystalline Compound A (Form 1) was not changed after storage at 25 °C/60% RH for 36 months or storage at 40 °C/75% RH for 6 months. Purity was determined by HPLC analysis.

[6] = 25 °C/60% RH (closed container), 24 months

Water content ([1]; listed as Form 3): 5.3% w/w %
Structure (SMILES): C[N+](C)(C)CCCCCn1c2ccc(Br)cc2c2cc(Br)ccc21.[Cl-] [Compound A Form 3, 5-(3,6-dibromo-9H-carbazol-9-yl)-N,N,N-trimethylpentan-1-aminium chloride]

Water content ([1]; listed as Form 4): 1% w/w %
Structure (SMILES): C[N+](C)(C)CCCCCn1c2ccc(Br)cc2c2cc(Br)ccc21.[Cl-] [Compound A Form 4, 5-(3,6-dibromo-9H-carbazol-9-yl)-N,N,N-trimethylpentan-1-aminium chloride]
Conversion of crystalline form [2]: converted to crystalline Form 1 of Compound A

Structure (SMILES): C[N+](C)(C)CCCCCn1c2ccc(Br)cc2c2cc(Br)ccc21.[Cl-] [Compound A Form 2, 5-(3,6-dibromo-9H-carbazol-9-yl)-N,N,N-trimethylpentan-1-aminium chloride]
Crystalline form observed [3]: Crystalline Form 1 of Compound A was observed during the desorption phase between 90% RH and 20% RH

XRPD after storage ([4]; 40 °C/75% RH (open vial)): Unchanged
Purity after storage ([4]; 40 °C/75% RH (open vial)): 99.93%
Change after storage ([4]; 40 °C/75% RH): not changed
XRPD after storage ([4]; 80 °C (closed vial)): Unchanged
Purity after storage ([4]; 80 °C (closed vial)): 99.93%
Change after storage ([4]; 80 °C): not changed
XRPD after storage ([4]; Room Temperature (open vial)): Unchanged
Purity after storage ([4]; Room Temperature (open vial)): 99.93%
Change after storage ([4]; room temperature): not changed
Water content ([1]; listed as Form 1): 4.38% w/w %
XRPD after storage ([5]; 25 °C/60% RH (closed container), 3 months): Unchanged
Purity after storage ([5]; 25 °C/60% RH (closed container), 3 months, 131040 min): 99.7%
XRPD after storage ([5]; 25 °C/60% RH (closed container), 6 months): Unchanged
Purity after storage ([5]; 25 °C/60% RH (closed container), 6 months, 263520 min): 99.7%
XRPD after storage ([5]; 25 °C/60% RH (closed container), 12 months): Unchanged
Purity after storage ([5]; 25 °C/60% RH (closed container), 12 months, 525600 min): 99.7%
XRPD after storage [5, 6]: Unchanged
Purity after storage [5, 6]: 99.7%
XRPD after storage ([5]; 25 °C/60% RH (closed container), 36 months): Unchanged
Purity after storage ([5]; 25 °C/60% RH (closed container), 36 months, 1.5768e+06 min): 99.7%
Change after storage ([5]; 25 °C/60% RH, 36 months): not changed
XRPD after storage ([5]; 40 °C/75% RH (closed container), 1 month): Unchanged
Purity after storage ([5]; 40 °C/75% RH (closed container), 1 month, 43200 min): 99.7%
XRPD after storage ([5]; 40 °C/75% RH (closed container), 3 months): Unchanged
Purity after storage ([5]; 40 °C/75% RH (closed container), 3 months, 131040 min): 99.7%
XRPD after storage ([5]; 40 °C/75% RH (closed container), 6 months): Unchanged
Purity after storage ([5]; 40 °C/75% RH (closed container), 6 months, 263520 min): 99.8%
Change after storage ([5]; 40 °C/75% RH, 6 months): not changed
Structure (SMILES): C[N+](C)(C)CCCCCn1c2ccc(Br)cc2c2cc(Br)ccc21.[Cl-] [Compound A Form 1, 5-(3,6-dibromo-9H-carbazol-9-yl)-N,N,N-trimethylpentan-1-aminium chloride]
